Assay results: patent publication US20060034882A1, “Yarns and fabrics having long-lasting mosquito repellent or antibacterial effect and their preparation” (FORMOSA TAFFETA CO., LTD., priority 2004, published 2006)

Columns and labels:
[1] = amount of compound contained in the fabric before and after laundering (Soxhlet extraction, HPLC); type: physicochemical; details: treated fabric of the Example; for Amounts, Laundering Number L0 (amount of the compound in the fabric before laundering): methylene dichloride extraction; for Amounts, Laundering Number L25 (amount of the compound in the fabric after 25 launderings): after 25 launderings (JIS L02173-103), methylene dichloride extraction 4 hours
Method: The fabric is subjected to a test for determining the amount of Permethrin and octylisothiazolone contained therein.
The compounds contained in the fabric are extracted, and determined by High Performance Liquid Chromatography (HPLC).
The fabric is laundered 25 times (JIS L02173-103). Then, the fabric is extracted for 4 hours with methylene dichloride in a Soxhlet extractor. The extract thus obtained is applied into HPLC for determining the amount of Permethrin or octylisothiazolone.
The amount of the compound contained in the fabric is determined by extraction and HPLC. L0 represents the amount of the compound before laundering. L25 represents the amount of the compound after 25 launderings.

rats = details: cited from earlier work
rabbits = details: cited from earlier work

| Compound | Amounts, Laundering Number L0 (amount of the compound in the fabric before laundering) [1] | LD50 for acute oral toxicity in rats (rats) | LD50 for acute dermal toxicity in rabbits (rabbits) | Amounts, Laundering Number L25 (amount of the compound in the fabric after 25 launderings) [1] | Amounts, Laundering Number L25 (amount of the compound in the fabric after 25 launderings) ([1]; listed as octylisothiazolone) |
| --- | --- | --- | --- | --- | --- |
| CC1(C)C(C=C(Cl)Cl)C1C(=O)OCc1cccc(Oc2ccccc2)c1 (centres unmarked) [Permethrin] | 536 ppm | up to 470 mg/kg | greater than 2500 mg/kg | – | – |
| CCCCCCCCn1sccc1=O [Octylisothiazolone, octylisothiazolone] | 80 ppm | up to 270 mg/kg | up to 311 mg/kg | 10 ppm | greater than 8 ppm |
